Experimental data from US20090311237A1, “Combination therapy using a soluble hyaluronidase and a bisphosphonate” (priority 2008, published 2009).

Assay: Phase 1 Stage 1 clinical pharmacokinetics of SC ZA co-administered with rHuPH20
Assay type: in vivo, human
Experimental: A pharmacokinetic study of zoledronic acid (ZA) co-administered with rHuPH20 in human subjects was conducted. The primary objective of the study was to determine the bioavailability of zoledronic acid dosed via subcutaneous (SC) co-administration with human recombinant hyaluronidase PH20 (rHuPH20). […] The patients were administered the prescribed dosage formulations as follows: Cohorts 1-5 were administered a single subcutaneous infusion in a dosage volume of 100 ml at a rate of 3 mL/min. […] The dosing solution is administered via needle or catheter into the SC space of the left anterior thigh (midway between the anterior iliac crest and the cephalad border of the patella). For cohorts 1-5, the dosing solutions were administered by a controlled rate infusion pump at approximately 3 mL/minute. […] The dosing solutions were administered by syringe push bolus injection. […] Serum concentration of ZA was determined using a qualified LC-MS-MS assay after derivatization with diazomethane (Zhu, L S et al. (2006) Rapid Commun. […] The assay range was from 2.0 to 400 ng/mL with a lower limit of quantitation (LLOQ) at 2.0 ng/mL. […] Non-compartmental analysis was used for derivation of primary and secondary pharmacokinetic (PK) parameters. […] Summary statistics (mean, standard deviation, and median) were calculated using JMP or Microsoft Excel.

[1] = Subj 1, ZA […] SC, inf 0.554 hr, PH20 23928 U
[2] = Subj 8, ZA […] SC, inf 0.531 hr, PH20 22944 U
[3] = Subj 11, ZA […] SC, inf 0.554 hr, PH20 23928 U
[4] = Subj 16, ZA […] SC, inf 0.553 hr, PH20 23904 U
[5] = Subj 18, ZA […] SC, inf […], PH20 23304 U
[6] = Subj 21, ZA […] SC, inf 0.556 hr, PH20 24000 U
[7] = Subj 25, ZA […] SC, inf 0.549 hr, PH20 23736 U
[8] = Subj 26, ZA […] SC, inf […], PH20 23088 U
[9] = Subj 27, ZA 0.0196 mg/kg SC, inf […], PH20 23976 U
[10] = Subj 29, ZA 0.0339 mg/kg SC, inf 0.556 hr, PH20 24000 U
[11] = Subj 31, ZA […] SC, inf 0.554 hr, PH20 23952 U
[12] = Subj 32, ZA […] SC, inf 0.556 hr, PH20 24000 U
[13] = Subj 37, ZA 0.0791 mg/kg SC, inf 0.556 hr, PH20 24000 U
[14] = Subj 38, ZA 0.0706 mg/kg SC, inf 0.554 hr, PH20 23952 U
[15] = Subj 39, ZA 0.0691 mg/kg SC, inf 0.552 hr, PH20 23856 U
[16] = Subj 41, ZA 0.0653 mg/kg SC, inf […], PH20 12216 U
[17] = Subj 46, ZA 0.0877 mg/kg SC, inf 0.276 hr, PH20 12000 U
[18] = Subj 51, ZA […] SC, inf 0.251 hr, PH20 6024 U

## O=P(O)(O)C(O)(Cn1ccnc1)P(=O)(O)O [ZA, 1-hydroxy-2-(1H-imidazol-1-yl)ethylidene-1,1-bisphosphonic acid]
[1]
  AUC (0-inf)/D: 0.006638 kg·h/mL
  CL: 2.511 mL/min/kg
  Cmax/D: 0.001722 kg/mL
  Vss: 0.44318 L/kg
  Vz: 0.40861 L/kg
[2]
  AUC (0-inf)/D: 0.01019 kg·h/mL
  CL: 1.635 mL/min/kg
  Cmax/D: 0.001772 kg/mL
  Vss: 0.45621 L/kg
  Vz: 0.43706 L/kg
[3]
  AUC (0-inf)/D: 0.009322 kg·h/mL
  CL: 1.7878 mL/min/kg
  Cmax/D: 0.002073 kg/mL
  Vss: 0.36447 L/kg
  Vz: 0.33982 L/kg
[4]
  AUC (0-inf)/D: 0.007097 kg·h/mL
  CL: 2.3485 mL/min/kg
  Cmax/D: 0.001739 kg/mL
  Vss: 0.44893 L/kg
  Vz: 0.44919 L/kg
[5]
  AUC (0-inf)/D: 0.00801 kg·h/mL
  CL: 2.0807 mL/min/kg
  Cmax/D: 0.002012 kg/mL
  Vss: 0.40254 L/kg
  Vz: 0.40424 L/kg
[6]
  AUC (0-inf)/D: 0.009748 kg·h/mL
  CL: 1.7097 mL/min/kg
  Cmax/D: 0.002152 kg/mL
  Vss: 0.34316 L/kg
  Vz: 0.33661 L/kg
[7]
  AUC (0-inf)/D: 0.006861 kg·h/mL
  CL: 2.4293 mL/min/kg
  Cmax/D: 0.00176 kg/mL
  Vss: 0.77861 L/kg
  Vz: 1.64423 L/kg
[8]
  AUC (0-inf)/D: 0.01198 kg·h/mL
  CL: 1.391 mL/min/kg
  Cmax/D: 0.002609 kg/mL
  Vss: 0.42621 L/kg
  Vz: 1.01736 L/kg
[9]
  AUC (0-inf)/D: 0.006142 kg·h/mL
  CL: 2.7135 mL/min/kg
  Cmax/D: 0.001276 kg/mL
  Vss: 0.91422 L/kg
  Vz: 1.53448 L/kg
[10]
  AUC (0-inf)/D: 0.007095 kg·h/mL
  CL: 2.349 mL/min/kg
  Cmax/D: 0.001853 kg/mL
  Vss: 0.66499 L/kg
  Vz: 1.76877 L/kg
[11]
  AUC (0-inf)/D: 0.007665 kg·h/mL
  CL: 2.1745 mL/min/kg
  Cmax/D: 0.001699 kg/mL
  Vss: 0.67025 L/kg
  Vz: 1.66854 L/kg
[12]
  AUC (0-inf)/D: 0.008441 kg·h/mL
  CL: 1.9745 mL/min/kg
  Cmax/D: 0.001677 kg/mL
  Vss: 1.2493 L/kg
  Vz: 3.76429 L/kg
[13]
  AUC (0-inf)/D: 0.007838 kg·h/mL
  CL: 2.1265 mL/min/kg
  Cmax/D: 0.001656 kg/mL
  Vss: 1.39565 L/kg
  Vz: 4.2995 L/kg
[14]
  AUC (0-inf)/D: 0.009027 kg·h/mL
  CL: 1.8463 mL/min/kg
  Cmax/D: 0.001657 kg/mL
  Vss: 1.52947 L/kg
  Vz: 3.90822 L/kg
[15]
  AUC (0-inf)/D: 0.01052 kg·h/mL
  CL: 1.584 mL/min/kg
  Cmax/D: 0.002127 kg/mL
  Vss: 1.20501 L/kg
  Vz: 3.57183 L/kg
[16]
  AUC (0-inf)/D: 0.01128 kg·h/mL
  CL: 1.478 mL/min/kg
  Cmax/D: 0.002159 kg/mL
  Vss: 2.37143 L/kg
  Vz: 5.48166 L/kg
[17]
  AUC (0-inf)/D: 0.008516 kg·h/mL
  CL: 1.957 mL/min/kg
  Cmax/D: 0.002429 kg/mL
  Vss: 1.09639 L/kg
  Vz: 3.51646 L/kg
[18]
  AUC (0-inf)/D: 0.009685 kg·h/mL
  CL: 1.721 mL/min/kg
  Cmax/D: 0.001817 kg/mL
